What was measured:
control AV12 cells = assay: PI hydrolysis in control AV12 cells (PI assay); assay type: cell-based; conditions: quisqualate 10 μM
Procedure: (§1) PI hydrolysis in clonal cell lines of AV12/pRS121 cells was measured in response to glutamate agonists as a functional assay for metabotropic glutamate receptor activity according to Schoepp, 11 TiPS 508 (1990).
(§2) Twenty-four-well tissue-culture vessels were seeded with approximately 250,000 cells per well in D-MEM (in the absence of glutamic acid) which contained […] and 10% dialyzed fetal calf serum. Four microcuries of ^3 H-myoinositol were then added to each well and the cultures were incubated for 48 hours at 37° C. The wells were then rinsed with serum-free medium which contained 10 mM LiCl and 10 mM myoinositol. Some wells were then exposed to medium with glutamate agonists for one hour at 37° C., and some wells were at the same time exposed to medium without glutamate agonists for one hour at 37° C.
(§3) The reactions were terminated by removing the media and adding 0.5 ml acetone-methanol (1:1). The cells were then incubated at 4° C. for 20 minutes. The acetone-methanol solutions were recovered from the wells and were placed into centrifuge tubes. […]
(§4) Labeled phosphoinositides were eluted from the cartridges with 4 ml of a solution which contained: 0.1 M ammonium formate; 0.1 M formic acid and 5 mM sodium tetraborate. […] Scintillation counting fluid (Ready Solv HP) was added to the vials and the radioactivity was determined in a Beckmann Scintillation Counter.

[1] = test system: HSmGluR1 receptor (human metabotropic glutamate receptor) in AV12/pRS121 cells; assay: PI hydrolysis in AV12/pRS121 cells (PI assay); assay type: cell-based; conditions: 10 μM, one hour at 37° C.
Procedure: as §1, §2, §3, §4

## N[C@@H](Cn1oc(=O)[nH]c1=O)C(=O)O [quisqualate]
Control AV12 cells
  increase in PI hydrolysis over basal levels: No increase
[1]
  increase in PI hydrolysis over the basal level: 200 to 300%
